The molecules below were run against T1, ITK (Homo sapiens, UniProt Q08881) (assay: ITK enzyme assay (Caliper or LCMS peptide phosphorylation)). Settings: purified ITK (Invitrogen PV3875), 20 μM ATP, Ki by Morrison's quadratic equation.
T1 construct: purchased Invitrogen PV3875
T1 sequence (Q08881 1-620): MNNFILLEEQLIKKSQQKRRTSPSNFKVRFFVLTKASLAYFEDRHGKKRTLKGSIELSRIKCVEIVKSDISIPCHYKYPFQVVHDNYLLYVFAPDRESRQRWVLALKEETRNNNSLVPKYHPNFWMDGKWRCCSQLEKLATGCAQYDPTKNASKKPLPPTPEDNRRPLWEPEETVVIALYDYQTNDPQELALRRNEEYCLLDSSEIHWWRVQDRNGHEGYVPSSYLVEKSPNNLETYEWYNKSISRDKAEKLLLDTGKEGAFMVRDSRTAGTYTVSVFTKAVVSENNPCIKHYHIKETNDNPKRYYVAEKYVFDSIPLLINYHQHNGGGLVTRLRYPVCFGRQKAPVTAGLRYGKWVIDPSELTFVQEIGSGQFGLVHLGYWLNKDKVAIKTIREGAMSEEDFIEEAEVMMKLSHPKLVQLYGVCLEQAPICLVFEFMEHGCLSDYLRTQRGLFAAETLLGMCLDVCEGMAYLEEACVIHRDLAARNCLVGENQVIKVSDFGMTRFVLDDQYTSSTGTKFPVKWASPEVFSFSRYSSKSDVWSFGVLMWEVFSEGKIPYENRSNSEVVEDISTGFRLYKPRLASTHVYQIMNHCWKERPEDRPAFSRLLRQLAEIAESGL
Format: biochemical
Outline: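 Purified human ITK peptide phosphorylation, quenched with EDTA (50 mM final) for Caliper LabChip separation or TCA (5% v/v final) for UPLC-MS/MS MRM quantification. Ki derived via Morrison tight-binding equation, corrected for competitive inhibition using ATP concentration relative to Km,app.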

| Structure (SMILES) | Ki |
| --- | --- |
| CC1(C)CCc2c(C(=O)Nc3cnn(C(c4ccccc4)C(C)(C)O)c3)n[nH]c2C1 (single isomer, unassigned) [Example 55b, N-(1-(2-hydroxy-2-methyl-1-phenylpropyl)-1H-pyrazol-4-yl)-6,6-dimethyl-4,5,6,7-tetrahydro-1H-indazole-3-carboxamide] | 18 nM |
| CCC1(C)CCc2c(C(=O)Nc3cnn(Cc4ccccc4)c3)n[nH]c2C1 (single isomer, unassigned) [Example 56a, N-(1-benzyl-1H-pyrazol-4-yl)-6-ethyl-6-methyl-4,5,6,7-tetrahydro-1H-indazole-3-carboxamide] | 9 nM |
| CCC1(C)CCc2c(C(=O)Nc3cnn(Cc4ccccc4)c3)n[nH]c2C1 (single isomer, unassigned) [Example 56b, N-(1-benzyl-1H-pyrazol-4-yl)-6-ethyl-6-methyl-4,5,6,7-tetrahydro-1H-indazole-3-carboxamide] | 13 nM |
| CC1(C)CCc2c(C(=O)Nc3cnn(C(CN4CCC4)c4ccccc4)c3)n[nH]c2C1 (single isomer, unassigned) [Example 57a, N-(1-(2-(azetidin-1-yl)-1-phenylethyl)-1H-pyrazol-4-yl)-6,6-dimethyl-4,5,6,7-tetrahydro-1H-indazole-3-carboxamide] | 2 nM |
| CC1(C)CCc2c(C(=O)Nc3cnn(C(CN4CCC4)c4ccccc4)c3)n[nH]c2C1 (single isomer, unassigned) [Example 57b, N-(1-(2-(azetidin-1-yl)-1-phenylethyl)-1H-pyrazol-4-yl)-6,6-dimethyl-4,5,6,7-tetrahydro-1H-indazole-3-carboxamide] | 12 nM |
| CN(CCC(c1ccccc1)n1cc(NC(=O)c2n[nH]c3c2CCC(C)(C)C3)cn1)C1COC1 (single isomer, unassigned) [Example 58a, 6,6-dimethyl-N-(1-(3-(methyl(oxetan-3-yl)amino)-1-phenylpropyl)-1H-pyrazol-4-yl)-4,5,6,7-tetrahydro-1H-indazole-3-carboxamide] | 7 nM |
| CN(CCC(c1ccccc1)n1cc(NC(=O)c2n[nH]c3c2CCC(C)(C)C3)cn1)C1COC1 (single isomer, unassigned) [Example 58b, 6,6-dimethyl-N-(1-(3-(methyl(oxetan-3-yl)amino)-1-phenylpropyl)-1H-pyrazol-4-yl)-4,5,6,7-tetrahydro-1H-indazole-3-carboxamide] | 0.6 nM |
| CN(CC(c1ccccc1)n1cc(NC(=O)c2n[nH]c3c2CCC(C)(C)C3)cn1)S(C)(=O)=O (single isomer, unassigned) [Example 61a, 6,6-dimethyl-N-(1-(2-(N-methylmethylsulfonamido)-1-phenylethyl)-1H-pyrazol-4-yl)-4,5,6,7-tetrahydro-1H-indazole-3-carboxamide] | 5 nM |
| CN(CC(c1ccccc1)n1cc(NC(=O)c2n[nH]c3c2CCC(C)(C)C3)cn1)S(C)(=O)=O (single isomer, unassigned) [Example 61b, 6,6-dimethyl-N-(1-(2-(N-methylmethylsulfonamido)-1-phenylethyl)-1H-pyrazol-4-yl)-4,5,6,7-tetrahydro-1H-indazole-3-carboxamide] | 1 nM |
| CC1(C)CCc2c(C(=O)Nc3cnn(C(CN4CCOCC4)c4ccccc4)c3)n[nH]c2C1 (single isomer, unassigned) [Example 62a, 6,6-dimethyl-N-(1-(2-morpholino-1-phenylethyl)-1H-pyrazol-4-yl)-4,5,6,7-tetrahydro-1H-indazole-3-carboxamide] | 3 nM |
| CC1(C)CCc2c(C(=O)Nc3cnn(C(CN4CCOCC4)c4ccccc4)c3)n[nH]c2C1 (single isomer, unassigned) [Example 62b, 6,6-dimethyl-N-(1-(2-morpholino-1-phenylethyl)-1H-pyrazol-4-yl)-4,5,6,7-tetrahydro-1H-indazole-3-carboxamide] | 16 nM |
| CC1(C)CCc2c(C(=O)Nc3cnn(C(c4ccccc4)C4CCN(CCF)CC4)c3)n[nH]c2C1 (single isomer, unassigned) [Example 63a, N-(1-((1-(2-fluoroethyl)piperidin-4-yl)(phenyl)methyl)-1H-pyrazol-4-yl)-6,6-dimethyl-4,5,6,7-tetrahydro-1H-indazole-3-carboxamide] | 0.1 nM |
| CC1(C)CCc2c(C(=O)Nc3cnn(C(c4ccccc4)C4CCN(CCF)CC4)c3)n[nH]c2C1 (single isomer, unassigned) [Example 63b, N-(1-((1-(2-fluoroethyl)piperidin-4-yl)(phenyl)methyl)-1H-pyrazol-4-yl)-6,6-dimethyl-4,5,6,7-tetrahydro-1H-indazole-3-carboxamide] | 1 nM |
| CC1(C)CCc2c(C(=O)Nc3cnn(C(c4ccccc4)[C@@H]4CNCCO4)c3)n[nH]c2C1 (single isomer, unassigned) [Example 66a] | 0.3 nM |

The next lines start with the values.

| Ki | Structure (SMILES) |
| --- | --- |
| 1 nM | CC1(C)CCc2c(C(=O)Nc3cnn(C(c4ccccc4)[C@@H]4CNCCO4)c3)n[nH]c2C1 (single isomer, unassigned) [Example 66b] |
| 0.2 nM | CC1(C)CCc2c(C(=O)Nc3cnn(C(c4ccccc4)C4CCN(S(C)(=O)=O)CC4)c3)n[nH]c2C1 (single isomer, unassigned) [Example 67a, 6,6-dimethyl-N-(1-((1-(methylsulfonyl)piperidin-4-yl)(phenyl)methyl)-1H-pyrazol-4-yl)-4,5,6,7-tetrahydro-1H-indazole-3-carboxamide] |
| 3 nM | CC1(C)CCc2c(C(=O)Nc3cnn(C(c4ccccc4)C4CCN(S(C)(=O)=O)CC4)c3)n[nH]c2C1 (single isomer, unassigned) [Example 67b, 6,6-dimethyl-N-(1-((1-(methylsulfonyl)piperidin-4-yl)(phenyl)methyl)-1H-pyrazol-4-yl)-4,5,6,7-tetrahydro-1H-indazole-3-carboxamide] |
| 0.2 nM | CN(C)CC(c1ccccc1)n1cc(NC(=O)c2n[nH]c3c2CC2CC2(C)C3)cn1 (single isomer, unassigned) [Example 68a, N-(1-(2-(dimethylamino)-1-phenylethyl)-1H-pyrazol-4-yl)-5a-methyl-1,4,4a,5,5a,6-hexahydrocyclopropa[f]indazole-3-carboxamide] |
| 4 nM | CN(C)CC(c1ccccc1)n1cc(NC(=O)c2n[nH]c3c2CC2CC2(C)C3)cn1 (single isomer, unassigned) [Example 68b, N-(1-(2-(dimethylamino)-1-phenylethyl)-1H-pyrazol-4-yl)-5a-methyl-1,4,4a,5,5a,6-hexahydrocyclopropa[f]indazole-3-carboxamide] |
| 11 nM | CC1(C)Cc2[nH]nc(C(=O)Nc3cnn(Cc4ccccc4)c3)c2CC1O (single isomer, unassigned) [Example 70a, N-(1-benzyl-1H-pyrazol-4-yl)-5-hydroxy-6,6-dimethyl-4,5,6,7-tetrahydro-1H-indazole-3-carboxamide] |
| 7 nM | CC1(C)Cc2[nH]nc(C(=O)Nc3cnn(Cc4ccccc4)c3)c2CC1O (single isomer, unassigned) [Example 70b, N-(1-benzyl-1H-pyrazol-4-yl)-5-hydroxy-6,6-dimethyl-4,5,6,7-tetrahydro-1H-indazole-3-carboxamide] |
| 0.7 nM | CC1(C)CCc2c(C(=O)Nc3cnn(C(CS(C)(=O)=O)c4cccnc4)c3)n[nH]c2C1 (single isomer, unassigned) [Example 73a, 6,6-dimethyl-N-(1-(2-(methylsulfonyl)-1-(pyridin-3-yl)ethyl)-1H-pyrazol-4-yl)-4,5,6,7-tetrahydro-1H-indazole-3-carboxamide] |
| 7 nM | CC1(C)CCc2c(C(=O)Nc3cnn(C(CS(C)(=O)=O)c4cccnc4)c3)n[nH]c2C1 (single isomer, unassigned) [Example 73b, 6,6-dimethyl-N-(1-(2-(methylsulfonyl)-1-(pyridin-3-yl)ethyl)-1H-pyrazol-4-yl)-4,5,6,7-tetrahydro-1H-indazole-3-carboxamide] |
| 0.2 nM | CC1(C)CCc2c(C(=O)Nc3cnn(C(c4cccnc4)C4CCS(=O)(=O)CC4)c3)n[nH]c2C1 (single isomer, unassigned) [Example 74a, N-(1-((1,1-dioxidotetrahydro-2H-thiopyran-4-yl)(pyridin-3-yl)methyl)-1H-pyrazol-4-yl)-6,6-dimethyl-4,5,6,7-tetrahydro-1H-indazole-3-carboxamide] |
| 3 nM | CC1(C)CCc2c(C(=O)Nc3cnn(C(c4cccnc4)C4CCS(=O)(=O)CC4)c3)n[nH]c2C1 (single isomer, unassigned) [Example 74b, N-(1-((1,1-dioxidotetrahydro-2H-thiopyran-4-yl)(pyridin-3-yl)methyl)-1H-pyrazol-4-yl)-6,6-dimethyl-4,5,6,7-tetrahydro-1H-indazole-3-carboxamide] |
| 2 nM | CC1(C)CCc2c(C(=O)Nc3cnn(C(c4ccccc4)C4CN(CCF)C4)c3)n[nH]c2C1 (single isomer, unassigned) [Example 75a, N-(1-((1-(2-fluoroethyl)azetidin-3-yl)(phenyl)methyl)-1H-pyrazol-4-yl)-6,6-dimethyl-4,5,6,7-tetrahydro-1H-indazole-3-carboxamide] |

Source: patent US20160326142A1, “PYRAZOLE CARBOXAMIDE COMPOUNDS, COMPOSITIONS AND METHODS OF USE” (Genentech, Inc., priority 2012, published 2016)
